According to ChEMBL document CHEMBL5375979, “Chemical, Biochemical, Cellular, and Physiological Characterization of Leucettinib-21, a Down Syndrome and Alzheimer's Disease Drug Candidate” (J Med Chem, 2023):

Experiments:
[1] = target: Cyclin-dependent kinase-like 2 (Homo sapiens, UniProt Q92772)
Description: Inhibition of human CDKL2 assessed as remaining activity by eurofins-cerep kinase profiler analysis

[2] = target: Cyclin-dependent kinase-like 5 (Homo sapiens, UniProt O76039)
Description: Inhibition of human CDKL5 assessed as remaining activity by eurofins-cerep kinase profiler analysis

[3] = target: Myotonin-protein kinase (Homo sapiens, UniProt Q09013)
Description: Inhibition of human DMPK assessed as remaining activity by eurofins-cerep kinase profiler analysis

[4] = target: Serine/threonine-protein kinase haspin (Homo sapiens, UniProt Q8TF76)
Sequence of Serine/threonine-protein kinase haspin (Q8TF76 whole entry): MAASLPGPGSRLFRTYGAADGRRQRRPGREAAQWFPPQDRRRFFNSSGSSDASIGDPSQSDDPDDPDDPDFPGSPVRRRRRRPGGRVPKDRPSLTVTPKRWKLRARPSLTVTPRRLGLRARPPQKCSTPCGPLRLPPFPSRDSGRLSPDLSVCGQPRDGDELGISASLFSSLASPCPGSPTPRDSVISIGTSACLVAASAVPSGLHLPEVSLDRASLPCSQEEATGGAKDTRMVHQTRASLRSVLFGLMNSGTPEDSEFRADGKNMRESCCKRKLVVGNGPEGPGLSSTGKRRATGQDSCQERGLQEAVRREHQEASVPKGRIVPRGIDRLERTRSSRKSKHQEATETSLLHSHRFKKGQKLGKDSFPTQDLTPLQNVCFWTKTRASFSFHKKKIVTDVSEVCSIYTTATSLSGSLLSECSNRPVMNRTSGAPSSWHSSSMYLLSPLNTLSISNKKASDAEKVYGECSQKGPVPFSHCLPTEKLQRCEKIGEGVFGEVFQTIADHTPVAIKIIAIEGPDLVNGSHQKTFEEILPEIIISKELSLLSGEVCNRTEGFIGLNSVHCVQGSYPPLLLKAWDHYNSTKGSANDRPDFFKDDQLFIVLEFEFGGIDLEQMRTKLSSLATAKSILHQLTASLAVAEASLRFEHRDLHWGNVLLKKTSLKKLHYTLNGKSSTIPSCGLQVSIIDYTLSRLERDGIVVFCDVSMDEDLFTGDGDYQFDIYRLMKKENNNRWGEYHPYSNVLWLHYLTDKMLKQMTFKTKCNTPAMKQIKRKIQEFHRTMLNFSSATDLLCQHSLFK
Description: Inhibition of human HASPIN assessed as remaining activity by eurofins-cerep kinase profiler analysis

[5] = target: Homeodomain-interacting protein kinase 4 (Homo sapiens, UniProt Q8NE63)
Sequence of Homeodomain-interacting protein kinase 4 (Q8NE63 whole entry): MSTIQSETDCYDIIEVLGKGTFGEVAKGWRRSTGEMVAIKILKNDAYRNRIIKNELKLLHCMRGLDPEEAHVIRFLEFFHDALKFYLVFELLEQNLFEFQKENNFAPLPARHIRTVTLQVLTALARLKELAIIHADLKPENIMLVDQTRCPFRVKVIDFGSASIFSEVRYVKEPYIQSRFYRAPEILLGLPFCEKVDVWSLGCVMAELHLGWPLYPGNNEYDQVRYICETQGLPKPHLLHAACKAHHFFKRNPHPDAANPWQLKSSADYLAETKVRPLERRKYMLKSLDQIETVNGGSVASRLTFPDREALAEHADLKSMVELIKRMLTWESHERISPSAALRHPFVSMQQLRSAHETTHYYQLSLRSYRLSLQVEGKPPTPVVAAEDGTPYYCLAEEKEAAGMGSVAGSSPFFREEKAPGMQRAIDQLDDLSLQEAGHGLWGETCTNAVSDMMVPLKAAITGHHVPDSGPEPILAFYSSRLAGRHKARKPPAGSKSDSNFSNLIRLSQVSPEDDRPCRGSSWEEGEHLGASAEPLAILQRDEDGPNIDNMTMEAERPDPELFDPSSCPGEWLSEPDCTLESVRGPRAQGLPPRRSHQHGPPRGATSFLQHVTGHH
Description: Inhibition of human HIPK4 assessed as remaining activity by eurofins-cerep kinase profiler analysis

[6] = target: Serine/threonine-protein kinase TAO1 (Homo sapiens, UniProt Q7L7X3)
Description: Inhibition of human TAO1 assessed as remaining activity by eurofins-cerep kinase profiler analysis

[7] = target: Serine/threonine-protein kinase TAO3 (Homo sapiens, UniProt Q9H2K8)
Sequence of Serine/threonine-protein kinase TAO3 (Q9H2K8 whole entry): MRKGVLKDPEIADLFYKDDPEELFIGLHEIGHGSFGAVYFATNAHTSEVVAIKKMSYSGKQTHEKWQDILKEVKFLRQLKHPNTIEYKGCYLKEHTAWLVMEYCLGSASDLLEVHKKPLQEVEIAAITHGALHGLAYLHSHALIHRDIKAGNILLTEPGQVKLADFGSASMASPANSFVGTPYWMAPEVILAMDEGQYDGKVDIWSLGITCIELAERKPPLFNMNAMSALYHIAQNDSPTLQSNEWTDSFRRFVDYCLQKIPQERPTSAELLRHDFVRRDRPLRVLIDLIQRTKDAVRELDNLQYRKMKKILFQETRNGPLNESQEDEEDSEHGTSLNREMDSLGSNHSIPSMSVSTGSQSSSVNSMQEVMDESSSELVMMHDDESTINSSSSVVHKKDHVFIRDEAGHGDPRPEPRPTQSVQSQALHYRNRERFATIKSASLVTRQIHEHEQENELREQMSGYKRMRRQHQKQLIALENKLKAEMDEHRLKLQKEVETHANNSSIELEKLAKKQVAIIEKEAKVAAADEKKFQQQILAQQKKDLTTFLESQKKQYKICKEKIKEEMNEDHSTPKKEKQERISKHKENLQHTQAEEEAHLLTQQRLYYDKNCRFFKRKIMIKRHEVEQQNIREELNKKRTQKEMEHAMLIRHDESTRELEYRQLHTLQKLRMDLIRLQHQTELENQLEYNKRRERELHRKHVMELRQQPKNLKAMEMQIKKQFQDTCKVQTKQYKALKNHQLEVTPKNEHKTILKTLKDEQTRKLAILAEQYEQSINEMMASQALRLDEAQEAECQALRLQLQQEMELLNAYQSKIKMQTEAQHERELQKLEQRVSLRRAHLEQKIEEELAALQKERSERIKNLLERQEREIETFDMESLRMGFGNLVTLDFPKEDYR
Description: Inhibition of human TAO3 assessed as remaining activity by eurofins-cerep kinase profiler analysis

[8] = target: BMP-2-inducible protein kinase (Homo sapiens) (UniProt Q9NSY1); conditions: dose 10.0 µM
[9] = target: Dual specificity protein kinase CLK1 (Homo sapiens, UniProt P49759); conditions: dose 10.0 µM
Sequence of Dual specificity protein kinase CLK1 (P49759 whole entry, looked up): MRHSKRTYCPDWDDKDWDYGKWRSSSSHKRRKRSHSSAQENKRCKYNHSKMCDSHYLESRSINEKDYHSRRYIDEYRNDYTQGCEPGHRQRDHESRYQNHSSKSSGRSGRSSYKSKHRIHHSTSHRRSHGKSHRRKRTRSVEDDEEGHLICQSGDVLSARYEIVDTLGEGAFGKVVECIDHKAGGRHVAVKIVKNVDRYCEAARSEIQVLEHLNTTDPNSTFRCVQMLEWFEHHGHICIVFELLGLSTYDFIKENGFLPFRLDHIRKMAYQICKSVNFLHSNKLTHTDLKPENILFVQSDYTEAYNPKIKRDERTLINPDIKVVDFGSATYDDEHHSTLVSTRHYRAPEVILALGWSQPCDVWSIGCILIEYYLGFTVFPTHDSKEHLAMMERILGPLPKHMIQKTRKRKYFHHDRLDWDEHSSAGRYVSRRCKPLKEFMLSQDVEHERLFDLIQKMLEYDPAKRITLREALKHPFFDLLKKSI

[10] = target: AP2-associated protein kinase 1 (Homo sapiens, UniProt Q2M2I8); conditions: dose 10.0 µM
[11] = target: Casein kinase II subunit alpha (Homo sapiens) (UniProt P68400); conditions: dose 10.0 µM
[12] = target: Homeodomain-interacting protein kinase 2 (Homo sapiens, UniProt Q9H2X6); conditions: dose 10.0 µM
Sequence of Homeodomain-interacting protein kinase 2 (Q9H2X6 whole entry, looked up): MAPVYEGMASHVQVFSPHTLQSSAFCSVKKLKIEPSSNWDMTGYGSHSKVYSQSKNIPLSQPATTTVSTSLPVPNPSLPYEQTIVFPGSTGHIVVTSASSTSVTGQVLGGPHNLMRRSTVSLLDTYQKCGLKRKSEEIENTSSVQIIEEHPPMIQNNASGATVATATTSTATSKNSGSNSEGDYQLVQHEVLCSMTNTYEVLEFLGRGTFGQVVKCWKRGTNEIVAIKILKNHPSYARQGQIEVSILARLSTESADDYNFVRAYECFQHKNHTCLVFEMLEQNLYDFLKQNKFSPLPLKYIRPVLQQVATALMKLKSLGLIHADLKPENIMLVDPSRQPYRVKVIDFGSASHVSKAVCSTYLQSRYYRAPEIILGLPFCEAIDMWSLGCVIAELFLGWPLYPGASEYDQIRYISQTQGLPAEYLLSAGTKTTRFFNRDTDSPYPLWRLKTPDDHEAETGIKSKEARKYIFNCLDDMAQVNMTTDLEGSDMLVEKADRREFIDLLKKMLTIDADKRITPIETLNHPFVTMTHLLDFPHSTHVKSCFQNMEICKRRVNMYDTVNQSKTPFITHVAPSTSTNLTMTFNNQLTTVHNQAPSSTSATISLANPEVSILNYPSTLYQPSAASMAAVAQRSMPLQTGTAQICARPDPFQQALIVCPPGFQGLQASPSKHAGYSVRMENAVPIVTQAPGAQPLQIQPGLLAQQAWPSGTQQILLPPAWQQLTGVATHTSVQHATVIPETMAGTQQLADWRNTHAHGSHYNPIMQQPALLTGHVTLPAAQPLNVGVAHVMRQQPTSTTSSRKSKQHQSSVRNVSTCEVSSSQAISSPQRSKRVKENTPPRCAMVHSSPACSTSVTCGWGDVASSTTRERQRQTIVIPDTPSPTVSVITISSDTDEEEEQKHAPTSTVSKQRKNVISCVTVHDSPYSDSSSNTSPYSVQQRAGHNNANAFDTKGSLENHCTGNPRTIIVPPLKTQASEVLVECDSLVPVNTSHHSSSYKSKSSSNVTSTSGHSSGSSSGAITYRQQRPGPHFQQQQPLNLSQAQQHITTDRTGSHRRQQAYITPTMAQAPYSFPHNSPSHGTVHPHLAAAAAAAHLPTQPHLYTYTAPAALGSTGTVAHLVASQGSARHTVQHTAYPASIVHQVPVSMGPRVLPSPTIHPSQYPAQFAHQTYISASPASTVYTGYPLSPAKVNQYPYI

[13] = target: Serine/threonine-protein kinase PLK4 (Homo sapiens) (UniProt O00444); conditions: dose 10.0 µM
Sequence of Serine/threonine-protein kinase PLK4 (Homo sapiens) (O00444 whole entry): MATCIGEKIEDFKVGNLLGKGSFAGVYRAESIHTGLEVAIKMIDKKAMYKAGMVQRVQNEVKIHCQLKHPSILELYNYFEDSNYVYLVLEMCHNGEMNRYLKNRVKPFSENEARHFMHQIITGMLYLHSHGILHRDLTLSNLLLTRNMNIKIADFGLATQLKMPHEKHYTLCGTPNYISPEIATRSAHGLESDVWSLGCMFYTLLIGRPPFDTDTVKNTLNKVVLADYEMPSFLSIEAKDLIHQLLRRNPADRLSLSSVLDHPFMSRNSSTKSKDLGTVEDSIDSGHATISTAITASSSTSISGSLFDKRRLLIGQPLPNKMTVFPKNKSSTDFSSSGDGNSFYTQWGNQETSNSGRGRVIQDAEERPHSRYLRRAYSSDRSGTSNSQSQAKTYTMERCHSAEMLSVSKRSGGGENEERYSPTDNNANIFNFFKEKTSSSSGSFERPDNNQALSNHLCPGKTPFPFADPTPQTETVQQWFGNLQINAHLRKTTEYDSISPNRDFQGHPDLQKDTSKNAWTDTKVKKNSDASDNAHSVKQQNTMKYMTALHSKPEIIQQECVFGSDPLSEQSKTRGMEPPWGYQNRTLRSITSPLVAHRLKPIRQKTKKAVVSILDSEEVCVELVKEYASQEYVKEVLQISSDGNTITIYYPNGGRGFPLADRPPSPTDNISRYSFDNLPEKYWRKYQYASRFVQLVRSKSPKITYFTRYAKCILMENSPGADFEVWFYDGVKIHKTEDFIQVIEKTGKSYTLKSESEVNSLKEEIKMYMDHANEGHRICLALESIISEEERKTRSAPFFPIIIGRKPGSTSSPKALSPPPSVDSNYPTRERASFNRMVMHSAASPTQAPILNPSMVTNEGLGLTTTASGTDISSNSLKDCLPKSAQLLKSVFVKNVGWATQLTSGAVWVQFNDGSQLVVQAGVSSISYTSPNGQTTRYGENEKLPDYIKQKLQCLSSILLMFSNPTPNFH

For `COC[C@@H](CC(C)C)NC1=N/C(=C\c2ccc3scnc3c2)C(=O)N1`, the IC50 [1] was > 1 µM, the IC50 [2] was > 10 µM and the IC50 [3] was > 1 µM. For the same compound, the IC50 [4] was > 10 µM, the IC50 [5] was > 10 µM and the IC50 [6] was > 10 µM. For the same compound, the IC50 [7] was > 10 µM, the ΔTm [8] was 4 °C and the ΔTm [9] was 3 °C. The ΔTm [10] was 6 °C, the ΔTm [11] was 1.4 °C and the ΔTm [12] was 0.6 °C. It also gave a ΔTm [13] of 1.4 °C.
